Where “and” joins values, the source holds several entries; their conditions need not be identical. Identical values can stand only once. Like-named read-outs stand apart in the source and are kept apart here.
Experiments:
[1] = Single dose oral PK study in male Sprague Dawley rats (plasma by LC-MS/MS); type: in vivo; details: for Plasma concentration of PRX-002 (−) Isomer: PRX-002 (−) Isomer oral 5 mg/kg b.w.
Experimental: We describe here PK results of prodrugs of PRX-002 (−) or (+) isomers. All doses of prodrugs were administered such that they were equivalent to 5 mg/kg of PRX-002 (−) or (+) for oral studies and 2 mg/kg PRX-002 (−) or (+) for intravenous studies in male Sprague-Dawley (MSD) rats. Higher doses of up to 10 or 15 mg/kg [again equivalent to PRX-002 (−)] were used in some studies (as specified)]. Formulation preparation, dose administration and time of sample collection was as follows.
Test item was weighed [5 mg equivalent dose of PRX-002 for prodrugs] and transferred to a graduated tube. Then 10 μL of Tween 80 was added and vortexed mixed until the test item was completely mixed. Small volume of 0.5% (w/v) carboxymethylcellulose in water solution was then added dropwise with continuous vortex mixing until a uniform suspension was obtained. The final volume was then made up to 10 mL with 0.5% (w/v) carboxymethylcellulose in water with final strength of 0.5 mg/mL. […] This formulation was freshly prepared before the administration to animals.
(§1) Adult male Sprague Dawley Rats aged 8-10 weeks were used for the study. Fasted animals were administered test item by oral route with a dose of 5 mg/kg body weight at dose volume of 10 mL/kg body weight. Under mild isoflurane anesthesia, blood specimens were collected by retro-orbital puncture method using capillary tubes into pre-labeled tubes containing anticoagulant (K2EDTA-2 mg/mL blood) during the next 24 hours of post dose as mentioned in below table. For blood sampling at multiple time points, right and left eyes were used alternatively for blood collection. Collected blood specimens were centrifuged at 4000 rpm, 4° C. for 10 minutes and plasma were separated and stored at −80° C. until analysis.
Blood was collected as outlined in Table 39.1 (oral).
(§2) Test item PRX-P4-003 was weighed and transferred to a graduated tube. Then 12.42 μL of Tween 80 was added and vortexed mixed until the test item was completely mixed. Small volume of 0.5% (w/v) Carboxymethylcellulose in water solution was then added dropwise with continuous vortex mixing until a uniform suspension was obtained. The final volume was then made up to 12.42 mL with 0.5% (w/v) Carboxymethylcellulose in water with final strength of 1.0 mgA/mL. […] This formulation was freshly prepared before the administration to animals.
as §1, with “with a PRX-P4-003” for “test item”, “10” for “5”
as §2, with “PRX-P5-006” for “PRX-P4-003”, “10” for “12.42”, “3.97 mg/mL.” for “1.0 mgA/mL.”
Adult male Sprague Dawley Rats aged 8-10 weeks were used for the study. Fasted animals were administered with a PRX-P5-006 by oral route with a dose of 15 mg/kg body weight at dose volume of 10 mL/kg body weight. […]

[2] = tested on: spontaneous locomotor activity; assay: Spontaneous locomotor activity (sLMA), intravenous administration; type: in vivo, Male SD rats; details: i.v. 2 mg/kg, 90 min recording, vs vehicle
Experimental: Male SD rats were intravenously administered with PRX-002(−) (2 mg/kg) and prodrug PRX-P4-003 [(25.8 mg/kg, equivalent to 10 mg/kg of PRX-002 (−)], and vehicle just before sLMA test.
Vehicle was: 10% PEG 400 (v/v)+30% (v/v) of (50% w/v) Hydroxypropyl-ß-cyclodextrin in water+60% (v/v) sterile water for injection (SWFI): 1 ml/kg volume.
PRX-P4-003 solution was: 25.8 mg/ml PRX-P4-003 (25.8 mg/kg: equivalent to 10 mg/ml active drug, i.v. @volume of 1 ml/kg). 42.3 mg PRX-P4-003 was added to vehicle 1.639 ml, vortexed for 30 min under room temperature to get a uniform suspension solution, suspension solution was continuously stirred during dosage.
The PRX-P4-002(−) solution was: 2 mg/ml PRX-P4-002(−) (2 mg/kg, i.v.@volume of 1 ml/kg). 4.5 mg PRX-002(−) was added to 2.25 ml Vehicle, vortexed for 30 min under room temperature to get a clear solution, the solution was continuously stirred during dosage.
Rat was placed at the center of test chamber for the 90 min sLMA video recording. (n=3/group).

[3] = single oral dose 5 mg/kg body weight, individual animals (R0175, R0176, R0177), plasma, 5 mg/kg

With `CCN[C@H]1[C@H]2CC[C@H](C2)[C@@H]1c1ccccc1` [PRX-002 (+) Isomer, (1S,2S,3R,4R)—N-Ethyl-3-phenylbicyclo[2.2.1]heptan-2-amine, reference compound] as the compound, how does the “AUC% extrap of PRX-002(+) Isomer” value ([1]; PRX-002 (+) Isomer oral 5 mg/kg, mean, listed as PRX-002(+) Isomer, 5 mg/kg) read?
Its value is 18.063 ±11.646%.

What about the “AUC% extrap of PRX-002(+) Isomer” value ([1]; PRX-002 (+) Isomer oral 5 mg/kg, mean, listed as PRX-002 (+isomer), 5 mg/kg) of the same compound?
The value was 18.063 ± 11.646%.

And the AUC(0-inf) ([1]; male, Sprague Dawley, rat, in vivo, po, 5 mg/kg, single oral dose 5 mg/kg b.w., mean plasma PK parameters (mean ± SD), read-out: AUCinf)?
The AUC(0-inf) was 151 ± 68.6 ng·h/mL.

And the AUC(0-t) ([1]; male, Sprague Dawley, rat, in vivo, po, 5 mg/kg, single oral dose 5 mg/kg b.w., mean plasma PK parameters (mean ± SD), read-out: AUClast)?
Its AUC(0-t) is 128 ± 74.2 ng·h/mL.

And the Cmax ([1]; male, Sprague Dawley, rat, in vivo, po, 5 mg/kg, single oral dose 5 mg/kg b.w., mean plasma PK parameters (mean ± SD), read-out: Cmax)?
Its Cmax is 107 ± 25.4 ng/mL.

What about the MRT last ([1]; male, Sprague Dawley, rat, in vivo, po, 5 mg/kg, single oral dose 5 mg/kg b.w., mean plasma PK parameters (mean ± SD), read-out: MRTlast) of the same compound?
Its MRT last is 57.4 ± 16.1 min.

What about the half-life ([1]; male, Sprague Dawley, rat, in vivo, po, 5 mg/kg, single oral dose 5 mg/kg b.w., mean plasma PK parameters (mean ± SD), read-out: T1/2 (converted)) of the same compound?
Its half-life is 59.5 ± 13.7 min.

And the Cmax ([1]; male, Sprague Dawley, rat, in vivo, po, 5 mg/kg, single oral dose 5 mg/kg body weight, individual animals (R0175, R0176, R0177), plasma, read-out: Cmax)?
Its Cmax is 135 ng/mL.

And the MRT last ([1]; male, Sprague Dawley, rat, in vivo, po, 5 mg/kg, single oral dose 5 mg/kg body weight, individual animals (R0175, R0176, R0177), plasma, read-out: MRTlast)?
The MRT last was 75.6 min.

What about the half-life ([1]; male, Sprague Dawley, rat, in vivo, po, 5 mg/kg, single oral dose 5 mg/kg body weight, individual animals (R0175, R0176, R0177), plasma, read-out: T1/2 (converted)) of the same compound?
The half-life was 64.2 min.

And the AUC(0-inf) ([1]; male, Sprague Dawley, rat, in vivo, po, 5 mg/kg, single oral dose 5 mg/kg body weight, mean of N=3 (Table 39.24), read-out: AUCinf)?
Its AUC(0-inf) is 151 ng·h/mL.

And the AUC(0-t) ([1]; male, Sprague Dawley, rat, in vivo, po, 5 mg/kg, single oral dose 5 mg/kg body weight, mean of N=3 (Table 39.24), read-out: AUClast)?
Its AUC(0-t) is 128 ng·h/mL.

And the Cmax ([1]; male, Sprague Dawley, rat, in vivo, po, 5 mg/kg, single oral dose 5 mg/kg body weight, mean of N=3 (Table 39.24), read-out: Cmax)?
The Cmax was 107 ng/mL.

What about the MRT last ([1]; male, Sprague Dawley, rat, in vivo, po, 5 mg/kg, single oral dose 5 mg/kg body weight, mean of N=3 (Table 39.24), read-out: MRTlast) of the same compound?
The MRT last was 57.4 min.

What about the half-life ([1]; male, Sprague Dawley, rat, in vivo, po, 5 mg/kg, single oral dose 5 mg/kg body weight, mean of N=3 (Table 39.24), read-out: T1/2 (converted)) of the same compound?
Its half-life is 59.5 min.

And the Tmax ([1]; male, Sprague Dawley, rat, in vivo, single oral dose 5 mg/kg body weight, individual animals (R0175, R0176, R0177), plasma, read-out: Tmax)?
Its Tmax is 30 min.

What about the AUC(0-inf) ([1]; male, Sprague-Dawley, rat, in vivo, po, 5 mg/kg, PRX-002 (+) Isomer oral 5 mg/kg, mean, read-out: AUCinf of PRX-002(+) Isomer) of the same compound?
Its AUC(0-inf) is 151 ± 68.6 ng·h/mL.

What about the AUC(0-t) ([1]; male, Sprague-Dawley, rat, in vivo, po, 5 mg/kg, PRX-002 (+) Isomer oral 5 mg/kg, mean, read-out: AUClast of PRX-002(+) Isomer) of the same compound?
Its AUC(0-t) is 128 ± 74.2 ng·h/mL.

What about the Cmax ([1]; male, Sprague-Dawley, rat, in vivo, po, 5 mg/kg, PRX-002 (+) Isomer oral 5 mg/kg, mean, read-out: Cmax of PRX-002(+) Isomer) of the same compound?
Its Cmax is 107 ± 25.4 ng/mL.

And the MRT last ([1]; male, Sprague-Dawley, rat, in vivo, po, 5 mg/kg, PRX-002 (+) Isomer oral 5 mg/kg, mean, read-out: MRTlast of PRX-002(+) Isomer)?
Its MRT last is 57.4 ± 16.1 min.

And the half-life ([1]; male, Sprague-Dawley, rat, in vivo, po, 5 mg/kg, PRX-002 (+) Isomer oral 5 mg/kg, mean, read-out: T1/2 of PRX-002(+) Isomer (converted))?
The half-life was 59.5 ± 13.7 min.

And the Tmax ([1]; male, Sprague-Dawley, rat, in vivo, PRX-002 (+) Isomer oral 5 mg/kg, mean, read-out: Tmax of PRX-002(+) Isomer)?
The Tmax was 30 min.

And the AUC% extrap ([1]; single oral dose 5 mg/kg b.w., mean plasma PK parameters (mean ± SD))?
Its AUC% extrap is 18.063 ± 11.646%.

What about the AUC% extrap [1, 3] of the same compound?
The AUC% extrap was 6.89% and 30.13% and 17.17%.

And the AUCinf [1, 3]?
Its AUCinf is 229.43 ng·h/mL and 124.51 ng·h/mL and 100.4 ng·h/mL.

And the AUClast [1, 3]?
The AUClast was 213.62 ng·h/mL and 87 ng·h/mL and 83.16 ng·h/mL.

And the Cmax [1, 3]?
Its Cmax is 85.44 ng/mL and 99.85 ng/mL.

And the MRTlast [1, 3]?
Its MRTlast is 51.6 min and 45 min.

What about the T1/2 [1, 3] of the same compound?
The T1/2 was 70.2 min and 44.4 min.

What about the AUC% extrap ([1]; single oral dose 5 mg/kg body weight, mean of N=3 (Table 39.24)) of the same compound?
The AUC% extrap was 18.063%.

Which results are given for `CCN[C@@H]1[C@@H]2CC[C@@H](C2)[C@H]1c1ccccc1` [PRX-002 (−) Isomer, (1R,2R,3S,4S)—N-Ethyl-3-phenylbicyclo[2.2.1]heptan-2-amine, reference compound]?
Plasma concentration of PRX-002 (−) Isomer ([1]; 0.00 h, mean): 0.00; Plasma concentration of PRX-002 (−) Isomer ([1]; 0.08 h, mean): 0.00; Plasma concentration of PRX-002 (−) Isomer ([1]; 0.25 h, mean): 50.20; Plasma concentration of PRX-002 (−) Isomer ([1]; 0.50 h, mean): 159.35; Plasma concentration of PRX-002 (−) Isomer ([1]; 1.00 h, mean): 170.35; Plasma concentration of PRX-002 (−) Isomer ([1]; 2.00 h, mean): 101.07; Plasma concentration of PRX-002 (−) Isomer ([1]; 4.00 h, mean): 21.30; Plasma concentration of PRX-002 (−) Isomer ([1]; 6.00 h, mean): 0.00; Plasma concentration of PRX-002 (−) Isomer ([1]; 24.00 h, mean): 0.00; AUC% extrap of PRX-002 (−) Isomer ([1]; PRX-002 (−) Isomer oral 5 mg/kg, mean): 12.904 ± 1.8410%; AUC(0-inf) ([1]; male, Sprague Dawley, rat, in vivo, po, 5 mg/kg, PRX-002 (−) Isomer oral 5 mg/kg, mean, read-out: AUCinf of PRX-002 (−) Isomer): 427 ± 122 ng·h/mL; AUC(0-t) ([1]; male, Sprague Dawley, rat, in vivo, po, 5 mg/kg, PRX-002 (−) Isomer oral 5 mg/kg, mean, read-out: AUClast of PRX-002 (−) Isomer): 371 ± 99.5 ng·h/mL; Cmax ([1]; male, Sprague Dawley, rat, in vivo, po, 5 mg/kg, PRX-002 (−) Isomer oral 5 mg/kg, mean, read-out: Cmax of PRX-002 (−) Isomer): 176 ± 47.5 ng/mL; MRT last ([1]; male, Sprague Dawley, rat, in vivo, po, 5 mg/kg, PRX-002 (−) Isomer oral 5 mg/kg, mean, read-out: MRTlast of PRX-002 (−) Isomer): 88.4 ± 6.24 min; half-life ([1]; male, Sprague Dawley, rat, in vivo, po, 5 mg/kg, PRX-002 (−) Isomer oral 5 mg/kg, mean, read-out: T1/2 of PRX-002 (−) Isomer (converted)): 112 ± 7.92 min; Tmax ([1]; male, Sprague Dawley, rat, in vivo, PRX-002 (−) Isomer oral 5 mg/kg, mean, read-out: Tmax of PRX-002 (−) Isomer): 50 ± 17.3 min; Spontaneous locomotor activity (sLMA): total traveling distance and duration [2]: significantly increased sLMA

Reference: US10662146B2, “Prodrugs of fencamfamine” (Praxis Bioresearch, LLC, priority 2015, dated 2020)
